Assay results published in US7767798B2, “Loganin analogues and a process for the preparation thereof” (priority 2005, dated 2010).
Values after ≈ are worked out from the molar mass of the structure shown. Read-outs that look alike come from different tables or passages of the source.

Assays:
[1] = test system: Adherent colon (CaCo2) cancer cell line; assay: MTT cytotoxicity assay, CaCo2; format: cell-based, human; details: for IC50: Homo sapiens
Procedure: (§1) Cytotoxicity testing In-vitro was done by the method of Woerdenberg et al^17. 2×10^3 cells/well were incubated in the 5% CO2, 95% atmosphere and 37° C. in CO2 incubator for 24 h to enable them to adhere properly to the 96 well polysterene microplate (Grenier, Germany). Test compounds dissolved in 100% DMSO (Merck, Germany) in at least five doses were added and left for four hour after which the compound plus media was replaced with fresh media and the cell were incubated for another 48 h in the CO2 incubator at 37° C. […] Then, 10 μL from 5 mg/ml stock of MTT [3-(4,5-dimethylthiazol-2-yl)-2,5-diphenyltetrazolium bromide; Sigma M 2128] was added, and plate were incubated at 37° C. for 4 h. 100 μL of dimethylsulfoxide (DMSO, Merck, Germany) were added to all wells and mixed thoroughly to dissolve the dark blue crystal. After a few minute at room temperature to ensure that all crystal were dissolve, the plate were read on a Spectra Max 190 Microplate Elisa Reader (Molecular Devices Inc., U.S.A), at 570 nm. Plate were normally read within 1 h of adding the DMSO. The experiment was done in triplicate and the inhibitory concentration (IC) values were calculated as; % INHIBITION=[1−OD (570 nm) of sample well/OD (570 nm) of control well]×100. IC50 is the concentration μg/mL required for 50% inhibition of cell growth as compared to that of untreated control.

[2] = test system: Liver (WRL) cancer cell line; assay: MTT cytotoxicity assay, WRL; format: cell-based, human; details: for IC50: Homo sapiens, read-out: WRL IC50
Procedure: as §1

[3] = test system: Suspension Colon (COLO-320) cancer cell line; assay: MTT cytotoxicity assay, COLO-320; format: cell-based, human; details: for IC50: Homo sapiens; for times higher activity than vinblastine: COLO-320
Procedure: as §1

[4] = test system: Ovary (PA-1) cancer cell line; assay: MTT cytotoxicity assay, PA-1; format: cell-based, human; details: for IC50: Homo sapiens, read-out: PA-1 IC50
Procedure: as §1

[5] = test system: human cancer cell lines (MCF-7, PA-1, WRL, COLO-320, CaCo2); assay: MTT cytotoxicity assay, summary over the tested human cancer cell lines; details: for IC50: Homo sapiens; for Dosage range IC50: range of IC50 over the tested cell lines (Table 1)
Procedure: as §1

[6] = test system: breast (MCF-7) cancer cell line; assay: MTT cytotoxicity assay, MCF-7; format: cell-based, human; details: for IC50: Homo sapiens
Procedure: as §1

[7] = tested human cancer cell lines, comparison with loganin, compound 4 or a neighbouring analogue
[8] = MTT assay, CaCo2 adherent colon cancer cells
[9] = MTT assay, WRL liver cancer cells
[10] = MTT assay, COLO-320 suspension colon cancer cells
[11] = MTT assay, PA-1 ovary cancer cells
[12] = MTT assay, MCF-7 breast cancer cells

COC(=O)C1=CO[C@@H](O[C@@H]2O[C@H](CO)[C@@H](O)[C@H](O)[C@H]2O)[C@@H]2[C@@H](C)[C@@H](O)C[C@H]12 [Compound 1, loganin]
IC50 ([1]; Caco-2, read-out: CaCo2 IC50): 1.28 µg/mL (≈ 3.28 µM) | IC50 [2]: 1.86 µg/mL (≈ 4.76 µM) | IC50 ([3]; COLO 320, read-out: COLO-320 IC50): 1 µg/mL (≈ 2.56 µM) | IC50 [4]: 1.45 µg/mL (≈ 3.71 µM) | IC50 ([5]; read-out: Dosage range IC50): 1 to 5 µg/mL (≈ 2.56 to 12.8 µM) | IC50 ([5]; read-out: concentration/dose used in vitro MTT assay for IC50, range): 1 to 5 µg/mL (≈ 2.56 to 12.8 µM) | cytotoxic activity in words [5, 7]: significant cytotoxic activity | IC50 ([6]; MCF7, read-out: MCF-7 IC50): 4.85 µg/mL (≈ 12.4 µM)

COC(=O)C1=CO[C@@H](O[C@@H]2O[C@H](COC(c3ccccc3)(c3ccccc3)c3ccccc3)[C@@H](O)[C@H](O)[C@H]2O)[C@@H]2[C@@H](C)[C@@H](O)C[C@H]12 [Compound 2, 6′-O-trityl loganin]
CaCo2 IC50 [1, 8]: 0.56 µg/mL | WRL IC50 [2, 9]: 1.86 µg/mL | COLO-320 IC50 [3, 10]: 0.25 µg/mL | PA-1 IC50 [4, 11]: 0.65 µg/mL | cytotoxic activity in words [5]: enhanced cytotoxic activity | Dosage range IC50 [5]: 0.25 to 2.0 µg/mL | MCF-7 IC50 [6, 12]: 1.00 µg/mL

COC(=O)C1=COC(O[C@@H]2O[C@H](COC(c3ccccc3)(c3ccccc3)c3ccccc3)[C@@H](OC(C)=O)[C@H](OC(C)=O)[C@H]2OC(C)=O)C2C1CC(OC(C)=O)C2C (stereo partly drawn) [Compound 3, 2′,3′,4′,7-tetra-O-acetyl-6′-O-trityl loganin]
CaCo2 IC50 [1, 8]: 3.45 µg/mL | WRL IC50 [2, 9]: 2.44 µg/mL | COLO-320 IC50 [3, 10]: 0.82 µg/mL | PA-1 IC50 [4, 11]: 1.20 µg/mL | Dosage range IC50 [5]: 0.80 to 3.5 µg/mL | cytotoxic activity in words [5, 7]: enhanced cytotoxic activity | MCF-7 IC50 [6, 12]: 1.20 µg/mL

COC(=O)C1=COC(O[C@@H]2O[C@H](CO)[C@@H](OC(C)=O)[C@H](OC(C)=O)[C@H]2OC(C)=O)C2C1CC(OC(C)=O)C2C (stereo partly drawn) [Compound 4, 2′,3′,4′,7-tetra-O-acetyl loganin]
cytotoxic activity in words [5, 7]: abolished cytotoxicity

CCC(=O)OC[C@H]1O[C@@H](OC2OC=C(C(=O)OC)C3CC(OC(C)=O)C(C)C23)[C@H](OC(C)=O)[C@@H](OC(C)=O)[C@@H]1OC(C)=O (stereo partly drawn) [Compound 5, 2′,3′,4′,7-Tetra-O-acetyl-6′-O-propionylloganin]
CaCo2 IC50 [1, 8]: 2.85 µg/mL | WRL IC50 [2, 9]: 2.65 µg/mL | COLO-320 IC50 [3, 10]: 0.85 µg/mL | PA-1 IC50 [4, 11]: 1.24 µg/mL | concentration/dose used in vitro MTT assay for IC50, range ([5]; MCF-7, PA-1, WRL, COLO-320 and CaCo-2): 0.80 to 3.0 µg/mL | Dosage range IC50 [5]: 0.80 to 3.0 µg/mL | MCF-7 IC50 [6, 12]: 1.88 µg/mL

CCCCCCCCCCCC(=O)OC[C@H]1O[C@@H](OC2OC=C(C(=O)OC)C3CC(OC(C)=O)C(C)C23)[C@H](OC(C)=O)[C@@H](OC(C)=O)[C@@H]1OC(C)=O (stereo partly drawn) [Compound 6, 2′,3′,4′,7-Tetra-O-acetyl-6′-O-lauroylloganin]
CaCo2 IC50 [1, 8]: 0.42 µg/mL | WRL IC50 [2, 9]: 0.85 µg/mL | times higher activity than vinblastine [3]: 13 times | COLO-320 IC50 [3, 10]: 0.04 µg/mL | PA-1 IC50 [4, 11]: 0.15 µg/mL | Dosage range IC50 [5]: 0.04 to 0.85 µg/mL | MCF-7 IC50 [6, 12]: 0.24 µg/mL

CCCCCCCCCCCCCC(=O)OC[C@H]1O[C@@H](OC2OC=C(C(=O)OC)C3CC(OC(C)=O)C(C)C23)[C@H](OC(C)=O)[C@@H](OC(C)=O)[C@@H]1OC(C)=O (stereo partly drawn) [Compound 7, 2′,3′,4′,7-Tetra-O-acetyl-6′-O-myristoyl loganin]
WRL IC50 [2, 9]: 58.50 µg/mL | COLO-320 IC50 [3, 10]: 30.00 µg/mL | PA-1 IC50 [4, 11]: 6.5 µg/mL | Dosage range IC50 [5]: 6.5 to 59.0 µg/mL | MCF-7 IC50 [6, 12]: 24.60 µg/mL

C=CC(=O)OC[C@H]1O[C@@H](OC2OC=C(C(=O)OC)C3CC(OC(C)=O)C(C)C23)[C@H](OC(C)=O)[C@@H](OC(C)=O)[C@@H]1OC(C)=O (stereo partly drawn) [Compound 9, 2′,3′,4′,7-Tetra-O-acetyl-6′-O-acryloyl loganin]
cytotoxic activity in words [5, 7]: totally abolished the activity

COC(=O)C1=COC(O[C@@H]2O[C@H](COC(=O)C=C(C)C)[C@@H](OC(C)=O)[C@H](OC(C)=O)[C@H]2OC(C)=O)C2C1CC(OC(C)=O)C2C (stereo partly drawn) [Compound 10, 2′,3′,4′,7-Tetra-O-acetyl-6′-O-3″,3″-dimethyl acryloylloganin]
CaCo2 IC50 [1, 8]: 0.80 µg/mL | WRL IC50 [2, 9]: 1.20 µg/mL | COLO-320 IC50 [3, 10]: 0.08 µg/mL | PA-1 IC50 [4, 11]: 0.65 µg/mL | Dosage range IC50 [5]: 0.08 to 1.20 µg/mL | cytotoxic activity in words [5, 7]: significant enhancement of anticancer activity | MCF-7 IC50 [6, 12]: 1.00 µg/mL

COC(=O)C1=COC(O[C@@H]2O[C@H](COC(=O)c3cc(OC)c(OC)c(OC)c3)[C@@H](OC(C)=O)[C@H](OC(C)=O)[C@H]2OC(C)=O)C2C1CC(OC(C)=O)C2C (stereo partly drawn) [Compound 11, 2′,3′,4′,7-Tetra-O-acetyl-6′-O-3,4,5-trimethoxy benzoyl loganin]
times higher activity than vinblastine ([1]; CaCO2): 8 times | CaCo2 IC50 [1, 8]: 0.06 µg/mL | WRL IC50 [2, 9]: 0.54 µg/mL | times higher activity than vinblastine [3]: 13 times | COLO-320 IC50 [3, 10]: 0.04 µg/mL | PA-1 IC50 [4, 11]: 0.10 µg/mL | Dosage range IC50 [5]: 0.044 to 3.54 µg/mL | cytotoxic activity in words [5, 7]: significant enhancement in the cytotoxicity | MCF-7 IC50 [6, 12]: 0.25 µg/mL

COC(=O)C1=COC(O[C@@H]2O[C@H](COC(=O)c3cccc([N+](=O)[O-])c3)[C@@H](OC(C)=O)[C@H](OC(C)=O)[C@H]2OC(C)=O)C2C1CC(OC(C)=O)C2C (stereo partly drawn) [Compound 12, 2′,3′,4′,7-Tetra-O-acetyl-6′-O-(3′″)-nitrobenzoyl loganin]
CaCo2 IC50 [1, 8]: 1.00 µg/mL | WRL IC50 [2, 9]: 3.20 µg/mL | COLO-320 IC50 [3, 10]: 0.44 µg/mL | PA-1 IC50 [4, 11]: 0.85 µg/mL | Dosage range IC50 [5]: 0.44 to 3.20 µg/mL | cytotoxic activity in words [5, 7]: slightly decreased the activity | MCF-7 IC50 [6, 12]: 1.25 µg/mL

CC[C@]1(O)C[C@@H]2CN(CCc3c([nH]c4ccccc34)[C@@](C(=O)OC)(c3cc4c(cc3OC)N(C)[C@H]3[C@@](O)(C(=O)OC)[C@H](OC(C)=O)[C@]5(CC)C=CCN6CC[C@]43[C@@H]65)C2)C1 [Vinblastine, vinblastine, reference compound]
IC50 ([1]; Caco-2, MTT assay, CaCo2 adherent colon cancer cells, read-out: CaCo2 IC50): 0.46 µg/mL (≈ 0.567 µM) | IC50 [2, 9]: 1.45 µg/mL (≈ 1.79 µM) | IC50 ([3]; MTT assay, COLO-320 suspension colon cancer cells, read-out: COLO-320 IC50): 0.52 µg/mL (≈ 0.641 µM) | IC50 [4, 11]: 0.025 µg/mL (≈ 0.0308 µM) | IC50 ([5]; read-out: Dosage range IC50): 0.02 to 1.45 µg/mL (≈ 0.0247 to 1.79 µM) | IC50 ([6]; MCF7, MTT assay, MCF-7 breast cancer cells, read-out: MCF-7 IC50): 0.02 µg/mL (≈ 0.0247 µM)
